{
  "source": "ChEMBL document CHEMBL3885881",
  "about": "“DrugMatrix”",
  "organism": "Rattus norvegicus",
  "assay": "DrugMatrix - Regimen: Daily Repeat",
  "format": "toxicity, organism-based, Sprague-Dawley",
  "parameters": "regimen Daily Repeat, gender Male, age 6-8 weeks",
  "conditions": "in vivo, po, 12 mg/kg, route oral GAVAGE, dose level Low, vehicle .5 % CMC; for ABSOLUTE BASOPHIL / ABSOLUTE EOSINOPHIL / ABSOLUTE LYMPHOCYTE / ABSOLUTE MONOCYTE / ABSOLUTE SEGMENTED NEUTROPHIL / BASOPHIL / EOSINOPHIL / ERYTHROCYTE COUNT / HEMATOCRIT / HEMOGLOBIN / LEUKOCYTE COUNT / LYMPHOCYTE / MEAN CORPUSCULAR HEMOGLOBIN / MEAN CORPUSCULAR HEMOGLOBIN CONCENTRATION / MEAN CORPUSCULAR VOLUME / MONOCYTE / NEUTROPHIL / NUCLEATED RED BLOOD CELLS / PLATELET COUNT: tissue Blood; for ALANINE AMINOTRANSFERASE / ALBUMIN / ALKALINE PHOSPHATASE / ASPARTATE AMINOTRANSFERASE / BLOOD UREA NITROGEN / CARBON DIOXIDE / CHLORIDE / CHOLESTEROL / CREATINE PHOSPHOKINASE / CREATININE / GLUCOSE / LACTATE DEHYDROGENASE / LIPASE / PHOSPHORUS / POTASSIUM / SODIUM / TOTAL BILIRUBIN / TOTAL PROTEIN / URIC ACID: tissue Plasma",
  "data": [
    {"smiles": "CC(=O)O[C@]1(C(C)=O)CC[C@H]2[C@@H]3C=C(C)C4=CC(=O)CC[C@]4(C)[C@H]3CC[C@@]21C", "note": "[MEGESTROL ACETATE]", "values": [
      {"measurement": "ABSOLUTE BASOPHIL", "setting": "72 h, time 3 day", "value": 0, "unit": "CELLS/uL"},
      {"measurement": "ABSOLUTE EOSINOPHIL", "setting": "72 h, time 3 day", "value": 84.67, "unit": "CELLS/uL"},
      {"measurement": "ABSOLUTE LYMPHOCYTE", "setting": "72 h, time 3 day", "value": 11039.33, "unit": "CELLS/uL"},
      {"measurement": "ABSOLUTE MONOCYTE", "setting": "72 h, time 3 day", "value": 40, "unit": "CELLS/uL"},
      {"measurement": "ABSOLUTE SEGMENTED NEUTROPHIL", "setting": "72 h, time 3 day", "value": 1136, "unit": "CELLS/uL"},
      {"measurement": "BASOPHIL", "setting": "72 h, time 3 day", "value": 0, "unit": "%"},
      {"measurement": "EOSINOPHIL", "setting": "72 h, time 3 day", "value": 0.67, "unit": "%"},
      {"measurement": "ERYTHROCYTE COUNT", "setting": "72 h, time 3 day", "value": 5.83, "unit": "x10E6/uL"},
      {"measurement": "HEMATOCRIT", "setting": "72 h, time 3 day", "value": 37.03, "unit": "%"},
      {"measurement": "HEMOGLOBIN", "setting": "72 h, time 3 day", "value": 13.83, "unit": "G/DL"},
      {"measurement": "LEUKOCYTE COUNT", "setting": "72 h, time 3 day", "value": 12.3, "unit": "x10E3/uL"},
      {"measurement": "LYMPHOCYTE", "setting": "72 h, time 3 day", "value": 89.67, "unit": "%"},
      {"measurement": "MEAN CORPUSCULAR HEMOGLOBIN", "setting": "72 h, time 3 day", "value": 23.77, "unit": "pg"},
      {"measurement": "MEAN CORPUSCULAR HEMOGLOBIN CONCENTRATION", "setting": "72 h, time 3 day", "value": 37.37, "unit": "G/DL"},
      {"measurement": "MEAN CORPUSCULAR VOLUME", "setting": "72 h, time 3 day", "value": 63.5, "unit": "fL"},
      {"measurement": "MONOCYTE", "setting": "72 h, time 3 day", "value": 0.33, "unit": "%"},
      {"measurement": "NEUTROPHIL", "setting": "72 h, time 3 day", "value": 9.33, "unit": "%"},
      {"measurement": "NUCLEATED RED BLOOD CELLS", "setting": "72 h, time 3 day", "value": "0 /100WBC"},
      {"measurement": "PLATELET COUNT", "setting": "72 h, time 3 day", "value": 1299.33, "unit": "x10E3/uL"},
      {"measurement": "ALANINE AMINOTRANSFERASE", "setting": "72 h, time 3 day", "value": 52, "unit": "u/L"},
      {"measurement": "ALBUMIN", "setting": "72 h, time 3 day", "value": 4.43, "unit": "G/DL"},
      {"measurement": "ALKALINE PHOSPHATASE", "setting": "72 h, time 3 day", "value": 394.33, "unit": "u/L"},
      {"measurement": "ASPARTATE AMINOTRANSFERASE", "setting": "72 h, time 3 day", "value": 80.67, "unit": "u/L"},
      {"measurement": "BLOOD UREA NITROGEN", "setting": "72 h, time 3 day", "value": 16.33, "unit": "mg/dL"},
      {"measurement": "CARBON DIOXIDE", "setting": "72 h, time 3 day", "value": 25.33, "unit": "mmol/L"},
      {"measurement": "CHLORIDE", "setting": "72 h, time 3 day", "value": 103.67, "unit": "MEQ/L"},
      {"measurement": "CHOLESTEROL", "setting": "72 h, time 3 day", "value": 66.33, "unit": "mg/dL"},
      {"measurement": "CREATINE PHOSPHOKINASE", "setting": "72 h, time 3 day", "value": 195, "unit": "u/L"},
      {"measurement": "CREATININE", "setting": "72 h, time 3 day", "value": 0.25, "unit": "mg/dL"},
      {"measurement": "GLUCOSE", "setting": "72 h, time 3 day", "value": 179.67, "unit": "mg/dL"},
      {"measurement": "LACTATE DEHYDROGENASE", "setting": "72 h, time 3 day", "value": 177.33, "unit": "u/L"},
      {"measurement": "LIPASE", "setting": "72 h, time 3 day", "value": 8, "unit": "u/L"},
      {"measurement": "PHOSPHORUS", "setting": "72 h, time 3 day", "value": 13.6, "unit": "mg/dL"},
      {"measurement": "POTASSIUM", "setting": "72 h, time 3 day", "value": 6.09, "unit": "MEQ/L"},
      {"measurement": "SODIUM", "setting": "72 h, time 3 day", "value": 146.33, "unit": "MEQ/L"},
      {"measurement": "TOTAL BILIRUBIN", "setting": "72 h, time 3 day", "value": 0.27, "unit": "mg/dL"},
      {"measurement": "TOTAL PROTEIN", "setting": "72 h, time 3 day", "value": 6.43, "unit": "G/DL"},
      {"measurement": "URIC ACID", "setting": "72 h, time 3 day", "value": 1.73, "unit": "mg/dL"},
      {"measurement": "ABSOLUTE BASOPHIL", "setting": "120 h, time 5 day", "value": 0, "unit": "CELLS/uL"},
      {"measurement": "ABSOLUTE EOSINOPHIL", "setting": "120 h, time 5 day", "value": 115.33, "unit": "CELLS/uL"},
      {"measurement": "ABSOLUTE LYMPHOCYTE", "setting": "120 h, time 5 day", "value": 7823.33, "unit": "CELLS/uL"},
      {"measurement": "ABSOLUTE MONOCYTE", "setting": "120 h, time 5 day", "value": 0, "unit": "CELLS/uL"},
      {"measurement": "ABSOLUTE SEGMENTED NEUTROPHIL", "setting": "120 h, time 5 day", "value": 461.33, "unit": "CELLS/uL"},
      {"measurement": "BASOPHIL", "setting": "120 h, time 5 day", "value": 0, "unit": "%"},
      {"measurement": "EOSINOPHIL", "setting": "120 h, time 5 day", "value": 1.33, "unit": "%"},
      {"measurement": "ERYTHROCYTE COUNT", "setting": "120 h, time 5 day", "value": 5.55, "unit": "x10E6/uL"},
      {"measurement": "HEMATOCRIT", "setting": "120 h, time 5 day", "value": 36.1, "unit": "%"},
      {"measurement": "HEMOGLOBIN", "setting": "120 h, time 5 day", "value": 13.53, "unit": "G/DL"},
      {"measurement": "LEUKOCYTE COUNT", "setting": "120 h, time 5 day", "value": 8.4, "unit": "x10E3/uL"},
      {"measurement": "LYMPHOCYTE", "setting": "120 h, time 5 day", "value": 93.33, "unit": "%"},
      {"measurement": "MEAN CORPUSCULAR HEMOGLOBIN", "setting": "120 h, time 5 day", "value": 24.37, "unit": "pg"},
      {"measurement": "MEAN CORPUSCULAR HEMOGLOBIN CONCENTRATION", "setting": "120 h, time 5 day", "value": 37.53, "unit": "G/DL"},
      {"measurement": "MEAN CORPUSCULAR VOLUME", "setting": "120 h, time 5 day", "value": 65.03, "unit": "fL"},
      {"measurement": "MONOCYTE", "setting": "120 h, time 5 day", "value": 0, "unit": "%"},
      {"measurement": "NEUTROPHIL", "setting": "120 h, time 5 day", "value": 5.33, "unit": "%"},
      {"measurement": "NUCLEATED RED BLOOD CELLS", "setting": "120 h, time 5 day", "value": "0 /100WBC"},
      {"measurement": "PLATELET COUNT", "setting": "120 h, time 5 day", "value": 1160, "unit": "x10E3/uL"},
      {"measurement": "ALANINE AMINOTRANSFERASE", "setting": "120 h, time 5 day", "value": 48.33, "unit": "u/L"},
      {"measurement": "ALBUMIN", "setting": "120 h, time 5 day", "value": 4.4, "unit": "G/DL"},
      {"measurement": "ALKALINE PHOSPHATASE", "setting": "120 h, time 5 day", "value": 429.67, "unit": "u/L"},
      {"measurement": "ASPARTATE AMINOTRANSFERASE", "setting": "120 h, time 5 day", "value": 75.33, "unit": "u/L"},
      {"measurement": "BLOOD UREA NITROGEN", "setting": "120 h, time 5 day", "value": 15, "unit": "mg/dL"},
      {"measurement": "CARBON DIOXIDE", "setting": "120 h, time 5 day", "value": 27.33, "unit": "mmol/L"},
      {"measurement": "CHLORIDE", "setting": "120 h, time 5 day", "value": 102.33, "unit": "MEQ/L"},
      {"measurement": "CHOLESTEROL", "setting": "120 h, time 5 day", "value": 63.33, "unit": "mg/dL"},
      {"measurement": "CREATINE PHOSPHOKINASE", "setting": "120 h, time 5 day", "value": 205, "unit": "u/L"},
      {"measurement": "CREATININE", "setting": "120 h, time 5 day", "value": 0.16, "unit": "mg/dL"},
      {"measurement": "GLUCOSE", "setting": "120 h, time 5 day", "value": 151.67, "unit": "mg/dL"},
      {"measurement": "LACTATE DEHYDROGENASE", "setting": "120 h, time 5 day", "value": 111.33, "unit": "u/L"},
      {"measurement": "LIPASE", "setting": "120 h, time 5 day", "value": 8.33, "unit": "u/L"},
      {"measurement": "PHOSPHORUS", "setting": "120 h, time 5 day", "value": 12.33, "unit": "mg/dL"},
      {"measurement": "POTASSIUM", "setting": "120 h, time 5 day", "value": 5.99, "unit": "MEQ/L"},
      {"measurement": "SODIUM", "setting": "120 h, time 5 day", "value": 148.33, "unit": "MEQ/L"},
      {"measurement": "TOTAL BILIRUBIN", "setting": "120 h, time 5 day", "value": 0.3, "unit": "mg/dL"},
      {"measurement": "TOTAL PROTEIN", "setting": "120 h, time 5 day", "value": 6.2, "unit": "G/DL"},
      {"measurement": "URIC ACID", "setting": "120 h, time 5 day", "value": 0.93, "unit": "mg/dL"}
    ]}
  ]
}
